Experimental data taken from ChEMBL document CHEMBL3885881, “DrugMatrix”.

Species: Rattus norvegicus
Type: toxicity, organism-based, Sprague-Dawley
Settings: in vivo, ip, 24 h, route intraperitoneal, time 1 day, vehicle .1 % RSA/SALINE
[1] = 0 mg/kg, vehicle control, tissue Blood, dose level Control
[2] = 0 mg/kg, vehicle control, tissue Plasma, dose level Control
[3] = […], tissue Blood, dose 0.25 mg/Kg, dose level High
[4] = […], tissue Plasma, dose 0.25 mg/Kg, dose level High

Description: DrugMatrix - Regimen: Single

TNF-ALPHA, RAT
ABSOLUTE EOSINOPHIL [1]: 109.33 CELLS/uL
ABSOLUTE LYMPHOCYTE [1]: 13180.67 CELLS/uL
ABSOLUTE MONOCYTE [1]: 354 CELLS/uL
ABSOLUTE SEGMENTED NEUTROPHIL [1]: 1756 CELLS/uL
BASOPHIL [1]: 0%
EOSINOPHIL [1]: 0.67%
ERYTHROCYTE COUNT [1]: 5.38 x10E6/uL
HEMOGLOBIN [1]: 12.57 G/DL
LEUKOCYTE COUNT [1]: 15.4 x10E3/uL
LYMPHOCYTE [1]: 85%
MEAN CORPUSCULAR HEMOGLOBIN [1]: 23.37 pg
MEAN CORPUSCULAR HEMOGLOBIN CONCENTRATION [1]: 38.3 G/DL
NEUTROPHIL [1]: 12%
NUCLEATED RED BLOOD CELLS [1]: 0 /100WBC
PLATELET COUNT [1]: 832.33 x10E3/uL
ALANINE AMINOTRANSFERASE [2]: 37.33 u/L
ALBUMIN [2]: 4 G/DL
ALKALINE PHOSPHATASE [2]: 344.67 u/L
ASPARTATE AMINOTRANSFERASE [2]: 69.33 u/L
BLOOD UREA NITROGEN [2]: 13.67 mg/dL
CARBON DIOXIDE [2]: 28.33 mmol/L
CHLORIDE [2]: 99.67 MEQ/L
CHOLESTEROL [2]: 73.67 mg/dL
CREATINE PHOSPHOKINASE [2]: 270 u/L
CREATININE [2]: 0.19 mg/dL
GLUCOSE [2]: 176.33 mg/dL
LACTATE DEHYDROGENASE [2]: 160 u/L
PHOSPHORUS [2]: 13.47 mg/dL
POTASSIUM [2]: 6.77 MEQ/L
TOTAL BILIRUBIN [2]: 0.13 mg/dL
TOTAL PROTEIN [2]: 6.07 G/DL
URIC ACID [2]: 1.87 mg/dL
ABSOLUTE EOSINOPHIL [3]: 57.67 CELLS/uL
ABSOLUTE LYMPHOCYTE [3]: 13018 CELLS/uL
ABSOLUTE MONOCYTE [3]: 366 CELLS/uL
ABSOLUTE SEGMENTED NEUTROPHIL [3]: 1925 CELLS/uL
BASOPHIL [3]: 0%
EOSINOPHIL [3]: 0.33%
ERYTHROCYTE COUNT [3]: 5.31 x10E6/uL
HEMATOCRIT [3]: 32.37%
HEMOGLOBIN [3]: 12.23 G/DL
LEUKOCYTE COUNT [3]: 15.37 x10E3/uL
LYMPHOCYTE [3]: 85%
MEAN CORPUSCULAR HEMOGLOBIN [3]: 23.03 pg
MEAN CORPUSCULAR HEMOGLOBIN CONCENTRATION [3]: 37.8 G/DL
MEAN CORPUSCULAR VOLUME [3]: 60.97 fL
NEUTROPHIL [3]: 12.33%
NUCLEATED RED BLOOD CELLS [3]: 0.33 /100WBC
PLATELET COUNT [3]: 1023.67 x10E3/uL
ALANINE AMINOTRANSFERASE [4]: 40 u/L
ALKALINE PHOSPHATASE [4]: 339.67 u/L
ASPARTATE AMINOTRANSFERASE [4]: 85.67 u/L
BLOOD UREA NITROGEN [4]: 13.67 mg/dL
CHOLESTEROL [4]: 76.33 mg/dL
CREATINE PHOSPHOKINASE [4]: 860.67 u/L
CREATININE [4]: 0.21 mg/dL
GLUCOSE [4]: 158.33 mg/dL
LACTATE DEHYDROGENASE [4]: 124 u/L
PHOSPHORUS [4]: 11.93 mg/dL
POTASSIUM [4]: 6.39 MEQ/L
SODIUM [4]: 145.63 MEQ/L
TOTAL BILIRUBIN [4]: 0.2 mg/dL
TOTAL PROTEIN [4]: 6 G/DL
